Experiment [1] relates to HCMV strain TB40/E. The experiment can be described thus: Inhibition of infection of endothelial cells (HECs), IE antigen immunofluorescence. It is filed as cell-based, Human cytomegalovirus. The protocol: (§1) For testing the inhibitory effect of antivirals or fusion proteins on HCMV, the respective inhibitors were diluted in MEM and mixed with infectious supernatants, the mixtures were incubated for 2 h at 37° C. before addition to the cells. For fibroblast infection the virus-inhibitor mixture was incubated on the cells for about 24 h. If endothelial cells were included in the experiment, all cells were supplied with their respective maintenance media after 2 h, and further incubated for 22 h.
Infection efficiencies were determined by immunofluorescence staining for viral proteins. For fixation and permeabilization the cells were incubated with 80% acetone for 5 min. For HCMV infected cells the immediate early proteins pUL122/123 were detected with a mouse monoclonal (clone E13, Argene) and visualized using a Cy3 conjugated goat anti-mouse secondary antibody (Jackson Immuno Research). HSV infected cultures were stained 6 h post infection for ICP0 using a mouse monoclonal (clone 11060, Santa Cruz) and goat anti-mouse AF488 (life technologies). DAPI was used to locate nuclei. Infection rates were determined by counting the number of cell nuclei positive for the respective viral protein, as well as the total number of nuclei per image. For each condition three images were evaluated. […]

Experiment [2] deals with HCMV wild type or UL74stop particles. The experiment can be described thus: Staining of wild type and UL74stop (gO deficient) particles with Fc-fusion protein. It is filed as binding, Human cytomegalovirus. The conditions noted are these: 500 ng/ml, 2 h. The method, then: To assess the binding of Fc-Proteins to virus particles, HFFs were seeded at a density of 40,000 cells per well on IBIDI plates 1 day prior to infection. Virus preparations were pre-incubated with Fc-fusion proteins at a final concentration of 500 ng/ml for 2 h at 37° C. The virus/Fc-protein mixtures were incubated with the cells for 1.5 h on ice. Before fixation with 80% acetone, the cells were washed once with MEM. For staining of viral particles mouse hybridoma recognizing the abundant viral protein pp150 (generously provided by W. Britt, Sanchez 2000) used. As a secondary antibody goat anti-mouse Cy3 (Jackson Immuno Research was used. Visualization of bound Fc-proteins was achieved by applying anti-human Alexa488 (Invitrogen). For better orientation, cell nuclei were stained with DAPI. For quantification of PDGFR-alpha-Fc binding to HCMV particles, the grey values of 100 particles per condition were quantified using AxioVision Software (Zeiss).
To test whether pUL74 is an interaction partner of PDGFR-alpha-Fc, the inventors tested whether gO deficient particles can be stained with the soluble molecule similarly to wild type particles (shown in FIG. 8). HCMV wild type or UL74stop particles were incubated with 500 ng/ml PDGFR-alpha-Fc or PDGFRβ-Fc for 2 h before attachment to the cells ice. […]

The next experiment addresses HCMV particles. In words: Binding of chimeric receptors (Fc-fusion proteins) to HCMV particles. The arrangement: species or system Human cytomegalovirus. The protocol: To assess the binding of Fc-Proteins to virus particles, HFFs were seeded at a density of 40,000 cells per well on IBIDI plates 1 day prior to infection. Virus preparations were pre-incubated with Fc-fusion proteins at a final concentration of 500 ng/ml for 2 h at 37° C. The virus/Fc-protein mixtures were incubated with the cells for 1.5 h on ice. Before fixation with 80% acetone, the cells were washed once with MEM. For staining of viral particles mouse hybridoma recognizing the abundant viral protein pp150 (generously provided by W. Britt, Sanchez 2000) used.
The inventors tested this by staining of adsorbed virus particles with the Fc-fusion proteins. […] Virus particles were stained for the capsid protein pp150 and bound Fc-fusion proteins.
The inventors analyzed the mode of inhibition by PDGFR-alpha-Fc. For this, the binding of different concentrations of the fusion protein was quantified by assessing the particle intensities after staining with anti-human antibody (FIG. 5). […] (FIGS. 4 and 5).

In experiment [3] the test system is HCMV strains AD169, Towne, Merlin, VR1814, VHL/E, TB40/F. The experiment can be described thus: Inhibition of HFF infection by other HCMV strains. The settings on record: 250 ng/ml, HFFs. It is filed as cell-based, Human cytomegalovirus. The method, then: (§2) Infection efficiencies were determined by immunofluorescence staining for viral proteins. For fixation and permeabilization the cells were incubated with 80% acetone for 5 min. For HCMV infected cells the immediate early proteins pUL122/123 were detected with a mouse monoclonal (clone E13, Argene) and visualized using a Cy3 conjugated goat anti-mouse secondary antibody (Jackson Immuno Research). HSV infected cultures were stained 6 h post infection for ICP0 using a mouse monoclonal (clone 11060, Santa Cruz) and goat anti-mouse AF488 (life technologies). DAPI was used to locate nuclei. Infection rates were determined by counting the number of cell nuclei positive for the respective viral protein, as well as the total number of nuclei per image. For each condition three images were evaluated.
Next, it was tested whether soluble PDGFR-alpha-Fc would inhibit not only strain TB40/E but also other strains of HCMV. […] After an overnight incubation, the fraction of infected cells was determined by immunofluorescence staining of viral immediate early antigen. […]

The test system of experiment [4] is HCMV strain TB40/E. The experiment can be described thus: Inhibition of infection of fibroblasts (HFFs), IE antigen immunofluorescence. It is filed as cell-based, Human cytomegalovirus. The protocol:
as §1, §2
To test this, the inventors pre-incubated cell free preparations of HCMV strain TB40/E with variable concentrations of soluble PDGFR-alpha-Fc chimeras for 2 h before adding them to HFFs and HECs. After 2 h the virus was removed and replaced with the appropriate cell culture medium for an overnight incubation. Cultures were then fixed, and the fraction of infected cells was determined by indirect immunofluorescence staining of viral IE antigens.
Cell free preparations of TB40/E were pre-incubated with increasing concentrations of the various Fc chimeras for 2 h. HFFs were then incubated with the mixtures for 2 h followed by a medium exchange and an overnight incubation.

On to “PDGFR-alpha-Fc: recombinant Fc-fusion protein of the PDGFR-alpha extracellular domain, obtained from R&D (6765-PR-050)”, for which the “extent of reduction of infection of HECs” value in the experiment with HCMV strain TB40/E [1] was “incomplete”. Also, the “EC50 of inhibition of infection of HECs” value in the experiment on HCMV strain TB40/E [1] (virus pre-incubated 2 h) lay in the range of 0.02 to 0.05 µg/mL. Also, the “staining of wild type vs UL74stop particles with anti-human Fc antibody” value in experiment [2] is on record as “Only virus particles containing the glycoprotein pUL74 were stained”. For the same substance, the “EC50 of binding to HCMV particles” value at HCMV particles (particle intensities after anti-human antibody staining) turned out to be 0.108 µg/mL. Besides, the “binding of Fc-fusion protein to virus particles (anti-human antibody staining)” value in the experiment with HCMV particles (particles pre-incubated with Fc-fusion protein, attached to cells on ice) is given as “binds to the virus”. Moreover, the “reduction of infection, strains other than VR1814” value in experiment [3] is reported as “complete”. The “inhibition of infection of HFFs at 200 ng/ml” value with HCMV strain TB40/E [4] (200 ng/ml) was “complete abrogation of infection”. Further, the “inhibitory potential of Fc chimeras on HCMV infection of HFFs” value in the experiment with HCMV strain TB40/E [4] (increasing concentrations, pre-incubated 2 h) is recorded as “blocked infection in a dose dependent fashion”. Further, the “EC50 of inhibition of infection of HFFs” value with HCMV strain TB40/E [4] (virus pre-incubated 2 h) lay within 0.01 to 0.02 µg/mL.
